According to patent publication US7932269B2, “Sulfonamides as orexin antagonists” (Hoffmann-La Roche Inc., priority 2008, dated 2011):

Biological target: T1, human orexin-2 (hOX2) receptors (Homo sapiens, UniProt O43614)
T1 construct: expressed in transfected cells
T1 sequence (O43614 1-444): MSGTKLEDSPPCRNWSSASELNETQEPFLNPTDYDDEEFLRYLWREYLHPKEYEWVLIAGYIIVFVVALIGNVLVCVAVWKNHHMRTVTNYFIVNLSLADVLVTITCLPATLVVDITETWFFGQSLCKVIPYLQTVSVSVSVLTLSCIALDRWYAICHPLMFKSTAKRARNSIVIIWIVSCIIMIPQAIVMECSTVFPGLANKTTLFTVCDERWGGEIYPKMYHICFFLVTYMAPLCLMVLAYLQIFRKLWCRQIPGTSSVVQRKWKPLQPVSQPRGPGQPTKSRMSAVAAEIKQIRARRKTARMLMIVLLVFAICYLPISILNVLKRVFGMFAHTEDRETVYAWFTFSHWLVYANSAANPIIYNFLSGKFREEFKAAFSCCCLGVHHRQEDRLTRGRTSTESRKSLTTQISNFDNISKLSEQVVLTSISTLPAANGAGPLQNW
Experiment: Intracellular Ca2+ mobilization assay (FLIPR), orexin-A as agonist
Assay type: cell-based
Settings: CHO(dHFr-) cells stably expressing hOX2; antagonist applied 25 min before EC80 of orexin-A; Kb=IC50/(1+[A]/EC50); read-out: Kb (μM) OX2R (human)
Protocol: Intracellular Ca^2+ Mobilization Assay
The Chinese Hamster Ovary (dHFr-) mutant cell line stably expressing human orexin-1 (hOX1) or human orexin-2 (hOX2) receptors were maintained in Dulbecco's Modified Eagle Medium (1X) with GlutaMax™ 1, 4500 mg/L D-Glucose and Sodium Pyruvate (Catalog No. 31966-021, Invitrogen, Carlsbad, Calif.), 5% dialyzed fetal calf serum (Catalog No. 26400-044), 100 μg/ml penicillin and 100 μg/ml streptomycin. The cells were seeded at 5×10^4 cells/well in the poly-D-lysine treated, 96-well, black/clear-bottomed plates (Catalog No. BD356640, BD Biosciences, Palo Alto, Calif.). 24 h later, the cells were loaded for 1 hr at 37° C. with 4 μM Flou-4 acetoxymethyl ester (Catalog No. F-14202, Molecular Probes, Eugene, Oreg.) in FLIPR buffer (1×HBSS, 20 mM HEPES, 2.5 mM Probenecid). Hanks' Balanced Salt Solution (HBSS) (10X) (catalog No. 14065-049) and HEPES (1M) (catalog No. 15630-056) were purchased from Invitrogen, Carlsbad, Calif. Probenecid (250 mM) (catalog No. P8761) was from Sigma, Buchs, Switzerland. The cells were washed five times with FLIPR buffer to remove excess dye and intracellular calcium mobilization, [Ca^2+] were measured using a Fluorometric Imaging Plate Reader (FLIPR-96, Molecular Devices, Menlo Park, Calif.) as described previously (Malherbe et al., Mol. Pharmacol., 64, 823-832, 2003). Orexin A (catalog No.1455, Toris Cookson Ltd, Bristol, UK) was used as agonist. Orexin A ([…] stock solution in DMSO) was diluted in FLIPR buffer +0.1% BSA. The EC50 and EC80 values of orexin-A were measured daily from standard agonist concentration-response curves in CHO(dHFr-)-OX1R and —OX2R cell lines. All compounds were dissolved in 100% DMSO. Inhibition curves were determined by addition of 11 concentrations (0.0001-10 μM) of inhibitory compounds and using EC80 value of orexin-A as agonist (a concentration which gave 80% of max agonist response, determined daily). The antagonists were applied 25 min (incubation at 37° C.) before the application of the agonist. Responses were measured as peak increase in fluorescence minus basal, normalized to the maximal stimulatory effect induced by EC80 value of orexin-A or orexin-B. Inhibition curves were fitted according to the Hill equation: y=100/(1+(x/1C50)^nH), where nH=slope factor using Excel-fit 4 software (Microsoft). Kb values were calculated according to the following equation Kb=IC50/(1+[A]/EC50) where A is the concentration of agonist added which is very close to agonist EC80 value, and IC50 and EC50 values were derived from the antagonist inhibition and orexin-A or B agonist curves, respectively.

Compound | Kb [µM]
COc1cccc(S(=O)(=O)N(CC(=O)N2CCCC2c2ccccc2)c2ccc(Cl)cc2)c1 (centres unmarked) [Example 1, N-(4-Chloro-phenyl)-3-methoxy-N-[2-oxo-2-(2-phenyl-pyrrolidin-1-yl)-ethyl]-benzenesulfonamide] | 0.0017
COc1ccc(S(=O)(=O)N(CC(=O)N2CCCC2c2ccccc2)c2ccc(Cl)cc2)cc1 (centres unmarked) [Example 2, N-(4-Chloro-phenyl)-4-methoxy-N-[2-oxo-2-(2-phenyl-pyrrolidin-1-yl)-ethyl]-benzenesulfonamide] | 0.0049
Cc1ccccc1S(=O)(=O)N(CC(=O)N1CCCC1c1ccccc1)c1ccc(Cl)cc1 (centres unmarked) [Example 3, N-(4-Chloro-phenyl)-2-methyl-N-[2-oxo-2-(2-phenyl-pyrrolidin-1-yl)-ethyl]-benzenesulfonamide] | 0.0005
O=C(CN(c1ccc(Cl)cc1)S(=O)(=O)c1cccc(Cl)c1)N1CCCC1c1ccccc1 (centres unmarked) [Example 4, 3-Chloro-N-(4-chloro-phenyl)-N-[2-oxo-2-(2-phenyl-pyrrolidin-1-yl)-ethyl]-benzenesulfonamide] | 0.0011
Cc1ccc(S(=O)(=O)N(CC(=O)N2CCCC2c2ccccc2)c2ccc(Cl)cc2)cc1 (centres unmarked) [Example 5, N-(4-Chloro-phenyl)-4-methyl-N-[2-oxo-2-(2-phenyl-pyrrolidin-1-yl)-ethyl]-benzenesulfonamide] | 0.0019
COc1ccc(S(=O)(=O)N(CC(=O)N2CCCC2c2ccccc2)c2ccc(Cl)cc2)cc1 (centres unmarked) [Example 6, N-(4-Chloro-phenyl)-4-methoxy-N-[2-oxo-2-(2-phenyl-pyrrolidin-1-yl)-ethyl]-benzenesulfonamide] | 0.0042
O=C(CN(c1ccc(Cl)cc1)S(=O)(=O)c1ccccc1Cl)N1CCCC1c1ccc(F)cc1 (centres unmarked) [Example 7, 2-Chloro-N-(4-chloro-phenyl)-N-{2-[2-(4-fluoro-phenyl)-pyrrolidin-1-yl]-2-oxo-ethyl}-benzenesulfonamide] | 0.0007
O=C(CN(c1ccc(Cl)cc1)S(=O)(=O)c1ccc(Cl)cc1)N1CCCC1c1ccccc1 (centres unmarked) [Example 8, 4-Chloro-N-(4-chloro-phenyl)-N-[2-oxo-2-(2-phenyl-pyrrolidin-1-yl)-ethyl]-benzenesulfonamide] | 0.0022
Cc1cccc(S(=O)(=O)N(CC(=O)N2CCCC2c2ccccc2)c2ccc(Cl)cc2)c1 (centres unmarked) [Example 11, N-(4-Chloro-phenyl)-3-methyl-N-[2-oxo-2-(2-phenyl-pyrrolidin-1-yl)-ethyl]-benzenesulfonamide] | 0.0005
O=C(CN(c1ccc(Cl)cc1)S(=O)(=O)c1ccccc1Cl)N1CCCC1c1ccccc1 (centres unmarked) [Example 12, 2-Chloro-N-(4-chloro-phenyl)-N-[2-oxo-2-(2-phenyl-pyrrolidin-1-yl)-ethyl]-benzenesulfonamide] | 0.0012
O=C(CN(c1ccc(Cl)cc1)S(=O)(=O)c1ccccc1F)N1CCCC1c1ccccc1 (centres unmarked) [Example 13, N-(4-Chloro-phenyl)-2-fluoro-N-[2-oxo-2-(2-phenyl-pyrrolidin-1-yl)-ethyl]-benzenesulfonamide] | 0.0025
O=C(CN(c1ccc(Cl)cc1)S(=O)(=O)c1cccc(F)c1)N1CCCC1c1ccc(F)cc1 (centres unmarked) [Example 15, N-(4-Chloro-phenyl)-3-fluoro-N-{2-[2-(4-fluoro-phenyl)-pyrrolidin-1-yl]-2-oxo-ethyl}-benzenesulfonamide] | 0.0018
O=C(CN(c1ccc(Cl)cc1)S(=O)(=O)c1ccccc1F)N1CCCC1c1ccc(F)cc1 (centres unmarked) [Example 16, N-(4-Chloro-phenyl)-2-fluoro-N-{2-[2-(4-fluoro-phenyl)-pyrrolidin-1-yl]-2-oxo-ethyl}-benzenesulfonamide] | 0.0009
O=C(CN(c1ccc(Cl)cc1)S(=O)(=O)c1cccc(Cl)c1)N1CCCC1c1ccc(F)cc1 (centres unmarked) [Example 18, 3-Chloro-N-(4-chloro-phenyl)-N-{2-[2-(4-fluoro-phenyl)-pyrrolidin-1-yl]-2-oxo-ethyl}-benzenesulfonamide] | 0.0014
O=C(CN(c1ccc(Cl)cc1)S(=O)(=O)c1ccc(Cl)cc1)N1CCCC1c1ccc(F)cc1 (centres unmarked) [Example 19, 4-Chloro-N-(4-chloro-phenyl)-N-{2-[2-(4-fluoro-phenyl)-pyrrolidin-1-yl]-2-oxo-ethyl}-benzenesulfonamide] | 0.002
Cc1ccccc1S(=O)(=O)N(CC(=O)N1CCCC1c1ccc(F)cc1)c1ccc(Cl)cc1 (centres unmarked) [Example 20, N-(4-Chloro-phenyl)-N-{2-[2-(4-fluoro-phenyl)-pyrrolidin-1-yl]-2-oxo-ethyl}-2-methyl-benzenesulfonamide] | 0.0006
COc1cccc(S(=O)(=O)N(CC(=O)N2CCCC2c2ccc(F)cc2)c2ccc(Cl)cc2)c1 (centres unmarked) [Example 21, N-(4-Chloro-phenyl)-N-{2-[2-(4-fluoro-phenyl)-pyrrolidin-1-yl]-2-oxo-ethyl}-3-methoxy-benzenesulfonamide] | 0.0006
COc1ccc(S(=O)(=O)N(CC(=O)N2CCCC2c2ccc(F)cc2)c2ccc(Cl)cc2)cc1 (centres unmarked) [Example 22, N-(4-Chloro-phenyl)-N-{2-[2-(4-fluoro-phenyl)-pyrrolidin-1-yl]-2-oxo-ethyl}-4-methoxy-benzenesulfonamide] | 0.0017
Cc1ccc(S(=O)(=O)N(CC(=O)N2CCCC2c2ccc(F)cc2)c2ccc(Cl)cc2)cc1 (centres unmarked) [Example 23, N-(4-Chloro-phenyl)-N-{2-[2-(4-fluoro-phenyl)-pyrrolidin-1-yl]-2-oxo-ethyl}-4-methyl-benzenesulfonamide] | 0.0013
Cc1cccc(S(=O)(=O)N(CC(=O)N2CCCC2c2ccc(F)cc2)c2ccc(Cl)cc2)c1 (centres unmarked) [Example 24, N-(4-Chloro-phenyl)-N-{2-[2-(4-fluoro-phenyl)-pyrrolidin-1-yl]-2-oxo-ethyl}-3-methyl-benzenesulfonamide] | 0.0005
COc1ccc(S(=O)(=O)N(CC(=O)N2CCCC2c2ccc(F)cc2)c2ccccc2OC)cc1 (centres unmarked) [Example 26, N-{2-[2-(4-Fluoro-phenyl)-pyrrolidin-1-yl]-2-oxo-ethyl}-4-methoxy-N-(2-methoxy-phenyl)-benzenesulfonamide] | 0.005
COc1ccc(N(CC(=O)N2CCCC2c2ccccc2)S(=O)(=O)c2ccc(OC)cc2)cc1 (centres unmarked) [Example 27, 4-Methoxy-N-(4-methoxy-phenyl)-N-[2-oxo-2-(2-phenyl-pyrrolidin-1-yl)-ethyl]-benzenesulfonamide] | 0.003
COc1ccc(S(=O)(=O)N(CC(=O)N2CCCC2c2ccc(F)cc2)c2cccc(F)c2)cc1 (centres unmarked) [Example 31, N-(3-Fluoro-phenyl)-N-{2-[2-(4-fluoro-phenyl)-pyrrolidin-1-yl]-2-oxo-ethyl}-4-methoxy-benzenesulfonamide] | 0.0064
COc1ccc(S(=O)(=O)N(CC(=O)N2CCCC2c2ccccc2)c2cccc(F)c2)cc1 (centres unmarked) [Example 36, N-(3-Fluoro-phenyl)-4-methoxy-N-[2-oxo-2-(2-phenyl-pyrrolidin-1-yl)-ethyl]-benzenesulfonamide] | 0.0077
COc1ccc(S(=O)(=O)N(CC(=O)N2CCCC2c2ccccc2)c2ccc(F)cc2)cc1 (centres unmarked) [Example 38, N-(4-Fluoro-phenyl)-4-methoxy-N-[2-oxo-2-(2-phenyl-pyrrolidin-1-yl)-ethyl]-benzenesulfonamide] | 0.0096
O=C(CN(c1ccc(Cl)cc1)S(=O)(=O)c1ccc(F)cc1)N1CCCC1c1ccc(F)cc1 (centres unmarked) [Example 40, N-(4-Chloro-phenyl)-4-fluoro-N-{2-[2-(4-fluoro-phenyl)-pyrrolidin-1-yl]-2-oxo-ethyl}-benzenesulfonamide] | 0.0005
